Columns and labels:
Type in all cases: cell-based
human TLR7 = molecular target: T1, human TLR7 (Homo sapiens, UniProt Q9NYK1); experiment: TLR7 inhibition reporter assay (HEK-Blue cells, SEAP reporter, gardiquimod stimulation); conditions: HEK-Blue cells overexpressing human TLR7, SEAP reporter, gardiquimod 7.5 μM
T1 construct: host or cells: HEK-Blue cells (HEK293-derived reporter line)
T1 sequence (Q9NYK1 27-1049): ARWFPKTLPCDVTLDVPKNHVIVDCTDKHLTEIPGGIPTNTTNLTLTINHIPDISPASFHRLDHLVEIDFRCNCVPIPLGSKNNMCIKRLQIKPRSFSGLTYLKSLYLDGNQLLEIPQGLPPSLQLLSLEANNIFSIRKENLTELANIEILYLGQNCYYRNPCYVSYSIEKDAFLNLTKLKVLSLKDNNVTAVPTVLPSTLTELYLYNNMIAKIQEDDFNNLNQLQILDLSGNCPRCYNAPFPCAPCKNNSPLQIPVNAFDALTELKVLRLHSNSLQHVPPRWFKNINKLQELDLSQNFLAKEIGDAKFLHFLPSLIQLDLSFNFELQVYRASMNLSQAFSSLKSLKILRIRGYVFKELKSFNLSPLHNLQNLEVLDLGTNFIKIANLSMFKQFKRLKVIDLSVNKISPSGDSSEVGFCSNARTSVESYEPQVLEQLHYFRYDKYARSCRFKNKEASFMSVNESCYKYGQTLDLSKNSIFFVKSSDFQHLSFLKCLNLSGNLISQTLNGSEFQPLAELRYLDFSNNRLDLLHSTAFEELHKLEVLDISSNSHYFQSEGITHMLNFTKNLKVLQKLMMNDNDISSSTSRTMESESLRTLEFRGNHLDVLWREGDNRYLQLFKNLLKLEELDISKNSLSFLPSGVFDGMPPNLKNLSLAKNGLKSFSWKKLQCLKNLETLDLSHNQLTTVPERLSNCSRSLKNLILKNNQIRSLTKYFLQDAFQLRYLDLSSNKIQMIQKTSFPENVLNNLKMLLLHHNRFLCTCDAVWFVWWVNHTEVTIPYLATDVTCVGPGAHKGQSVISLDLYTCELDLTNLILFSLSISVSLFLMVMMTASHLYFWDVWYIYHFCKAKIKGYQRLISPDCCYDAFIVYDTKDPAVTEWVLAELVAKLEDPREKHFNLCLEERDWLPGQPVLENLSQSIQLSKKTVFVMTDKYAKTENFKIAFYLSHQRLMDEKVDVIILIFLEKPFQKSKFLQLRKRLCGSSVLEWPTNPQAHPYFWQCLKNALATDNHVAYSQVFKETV
Procedure, shortened: (§1)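 After 22 h at 37 °C, SEAP secretion was measured from human TLR7-, TLR8- or TLR9-expressing HEK-Blue reporter cells given compound (0.05 nM–50 μM) 30 min before agonist: 7.5 μM gardiquimod, 15.9 μM R848 or 5 nM ODN2006 respectively. Percent inhibition referenced to agonist-plus-DMSO and known-inhibitor wells.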

human TLR8 = molecular target: T2, human TLR8 (Homo sapiens, UniProt Q9NR97); experiment: TLR8 inhibition reporter assay (HEK-Blue cells, SEAP reporter, R848 stimulation); conditions: HEK-Blue cells overexpressing human TLR8, SEAP reporter, R848 15.9 μM
T2 construct: host or cells: HEK-Blue cells (HEK293-derived reporter line)
T2 sequence (Q9NR97 27-1041): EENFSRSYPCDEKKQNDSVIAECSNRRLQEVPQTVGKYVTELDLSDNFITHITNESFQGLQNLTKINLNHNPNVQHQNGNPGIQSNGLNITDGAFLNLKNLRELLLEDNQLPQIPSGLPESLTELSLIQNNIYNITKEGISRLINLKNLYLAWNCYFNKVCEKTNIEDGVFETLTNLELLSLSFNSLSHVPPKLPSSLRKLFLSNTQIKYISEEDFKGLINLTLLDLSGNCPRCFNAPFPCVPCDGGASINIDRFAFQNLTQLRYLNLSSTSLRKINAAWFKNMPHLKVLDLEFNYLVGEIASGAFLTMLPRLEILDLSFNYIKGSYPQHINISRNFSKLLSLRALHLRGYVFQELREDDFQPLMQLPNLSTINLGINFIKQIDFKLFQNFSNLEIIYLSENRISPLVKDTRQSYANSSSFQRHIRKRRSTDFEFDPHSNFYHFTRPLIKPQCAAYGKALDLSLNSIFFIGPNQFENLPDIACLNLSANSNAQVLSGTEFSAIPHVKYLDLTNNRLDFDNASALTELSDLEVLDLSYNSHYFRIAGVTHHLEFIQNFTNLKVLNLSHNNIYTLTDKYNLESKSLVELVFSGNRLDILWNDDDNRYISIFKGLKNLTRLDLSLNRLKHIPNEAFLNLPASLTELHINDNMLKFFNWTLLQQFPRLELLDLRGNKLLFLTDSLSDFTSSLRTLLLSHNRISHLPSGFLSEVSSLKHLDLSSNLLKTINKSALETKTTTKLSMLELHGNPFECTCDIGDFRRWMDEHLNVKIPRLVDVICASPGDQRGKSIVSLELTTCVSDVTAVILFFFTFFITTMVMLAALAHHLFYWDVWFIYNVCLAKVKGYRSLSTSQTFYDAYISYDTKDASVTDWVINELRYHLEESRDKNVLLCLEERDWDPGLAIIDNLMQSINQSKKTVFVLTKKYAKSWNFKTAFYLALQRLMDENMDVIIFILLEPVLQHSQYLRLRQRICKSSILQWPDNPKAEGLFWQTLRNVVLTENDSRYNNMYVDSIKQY
Procedure, shortened: as §1

human TLR9 = molecular target: T3, human TLR9 (Homo sapiens, UniProt Q9NR96); experiment: TLR9 inhibition reporter assay (HEK-Blue cells, SEAP reporter, ODN2006 stimulation); conditions: HEK-Blue cells overexpressing human TLR9, SEAP reporter, ODN2006 5 nM
T3 construct: host or cells: HEK-Blue cells (HEK293-derived reporter line)
T3 sequence (Q9NR96 26-1032): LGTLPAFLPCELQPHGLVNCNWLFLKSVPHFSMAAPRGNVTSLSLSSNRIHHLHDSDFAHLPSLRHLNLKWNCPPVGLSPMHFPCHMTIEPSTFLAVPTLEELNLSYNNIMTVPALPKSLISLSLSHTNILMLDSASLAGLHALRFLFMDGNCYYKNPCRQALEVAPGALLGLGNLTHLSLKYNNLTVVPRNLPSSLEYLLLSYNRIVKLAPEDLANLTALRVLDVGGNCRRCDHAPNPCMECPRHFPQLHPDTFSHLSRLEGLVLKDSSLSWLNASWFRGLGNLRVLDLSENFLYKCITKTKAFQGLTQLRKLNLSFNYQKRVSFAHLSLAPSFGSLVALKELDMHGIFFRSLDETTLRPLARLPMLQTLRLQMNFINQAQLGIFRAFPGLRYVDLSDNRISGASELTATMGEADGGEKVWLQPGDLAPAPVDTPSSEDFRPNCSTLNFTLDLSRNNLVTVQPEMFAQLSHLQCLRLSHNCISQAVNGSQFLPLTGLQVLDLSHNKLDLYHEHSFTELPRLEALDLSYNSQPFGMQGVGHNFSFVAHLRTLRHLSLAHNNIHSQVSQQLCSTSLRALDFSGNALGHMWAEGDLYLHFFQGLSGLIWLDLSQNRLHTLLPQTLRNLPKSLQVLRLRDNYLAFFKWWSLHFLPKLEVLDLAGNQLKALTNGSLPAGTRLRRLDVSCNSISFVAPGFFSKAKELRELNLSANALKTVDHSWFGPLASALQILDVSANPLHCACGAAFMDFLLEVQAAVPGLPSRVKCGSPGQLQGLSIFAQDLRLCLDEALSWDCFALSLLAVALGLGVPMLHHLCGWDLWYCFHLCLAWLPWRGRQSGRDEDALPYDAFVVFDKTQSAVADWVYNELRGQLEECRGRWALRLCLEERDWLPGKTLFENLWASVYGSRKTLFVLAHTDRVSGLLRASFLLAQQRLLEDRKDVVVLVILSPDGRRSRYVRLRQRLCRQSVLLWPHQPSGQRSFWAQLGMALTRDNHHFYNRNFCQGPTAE
Procedure, shortened: as §1

| IC50 (human TLR7) [nM] | IC50 (human TLR8) [nM] | IC50 (human TLR9) [nM] | Compound |
| --- | --- | --- | --- |
| 100 to 1000 | 100 to 1000 | 1000 to 50000 | CCc1c(-c2ccnc3[nH]ncc23)[nH]c2ccc(C3CCN(Cc4c[nH]c(-c5ccccc5)n4)CC3)cc12 [Example 908, 4-(3-ethyl-5-(1-((2-phenyl-1H-imidazol-4-yl)methyl)piperidin-4-yl)-1H-indol-2-yl)-1H-pyrazolo[3,4-b]pyridine] |
| 1000 to 50000 | > 3130 | 1000 to 50000 | CC(C)c1c(-c2cnc3ccnn3c2)[nH]c2ccc(C3CCNCC3)cc12 [Example 181, 6-(3-isopropyl-5-(piperidin-4-yl)-1H-indol-2-yl)pyrazolo[1,5-a]pyrimidine] |
| < 100 | < 100 | 1000 to 50000 | Cc1c(-c2[nH]c3ccc(C4CCN(C5CCOCC5)CC4)cc3c2C(C)C)nn2ncnc2c1C [Example 684, 6-(3-isopropyl-5-(1-(tetrahydro-2H-pyran-4-yl)piperidin-4-yl)-1H-indol-2-yl)-7,8-dimethyl-[1,2,4]triazolo[1,5-b]pyridazine] |
| < 100 | < 100 | 1000 to 50000 | Cc1cc(-c2[nH]c3ccc(C4CCN(CCS(C)(=O)=O)CC4)cc3c2C(C)C)cc2cnnn12 [Example 795, 5-(3-isopropyl-5-(1-(2-(methylsulfonyl)ethyl)piperidin-4-yl)-1H-indol-2-yl)-7-methyl-[1,2,3]triazolo[1,5-a]pyridine] |
| < 100 | < 100 | 1000 to 50000 | Cc1cnc2[nH]ccc2c1-c1[nH]c2ccc(C3CCNCC3)cc2c1C(C)C [Example 247, 4-(3-isopropyl-5-(piperidin-4-yl)-1H-indol-2-yl)-5-methyl-1H-pyrrolo[2,3-b]pyridine] |
| 100 to 1000 | 100 to 1000 | 1000 to 50000 | CCOC(=O)N1CCC(N2CCC(c3ccc4[nH]c(-c5ccnc6[nH]ncc56)c(C(C)C)c4c3)CC2)C(C)C1 (stereo not drawn) [Example 835, ethyl 4-(3-isopropyl-2-(1H-pyrazolo[3,4-b]pyridin-4-yl)-1H-indol-5-yl)-3′-methyl-[1,4′-bipiperidine]-1′-carboxylate] |
| < 100 | < 100 | 1000 to 50000 | CC(C)c1c(-c2cn(C)c3ncccc23)[nH]c2ccc(C3CCN(CCS(N)(=O)=O)CC3)cc12 [Example 783, 2-(4-(3-isopropyl-2-(1-methyl-1H-pyrrolo[2,3-b]pyridin-3-yl)-1H-indol-5-yl)piperidin-1-yl)ethane-1-sulfonamide] |
| < 100 | < 100 | 1000 to 50000 | Cc1cc(-c2[nH]c3ccc(C4CCN(C(=O)[C@@H]5C[C@@H](O)CN5)CC4)cc3c2C(C)C)cc2ncnn12 [Example 537, ((2S,4R)-4-hydroxypyrrolidin-2-yl)(4-(3-isopropyl-2-(5-methyl-[1,2,4]triazolo[1,5-a]pyridin-7-yl)-1H-indol-5-yl)piperidin-1-yl)methanone] |
| > 3130 | > 3130 | 100 to 1000 | CC(C)c1c(-c2c[nH]c3ccncc23)[nH]c2ccc(C3CCNCC3)cc12 [Example 14, 3-(3-isopropyl-5-(piperidin-4-yl)-1H-indol-2-yl)-1H-pyrrolo[3,2-c]pyridine] |
| < 100 | < 100 | 100 to 1000 | CC(C)c1c(-c2ccnc3[nH]ncc23)[nH]c2ccc(C3CCN(Cc4ccc(N5CCOCC5)cc4)CC3)cc12 [Example 912, 4-(4-((4-(3-isopropyl-2-(1H-pyrazolo[3,4-b]pyridin-4-yl)-1H-indol-5-yl)piperidin-1-yl)methyl)phenyl)morpholine] |
| < 100 | < 100 | 100 to 1000 | CC(C)c1c(-c2ccnc3[nH]cnc23)[nH]c2ccc(C3CCNCC3)cc12 [Example 61, 7-(3-isopropyl-5-(piperidin-4-yl)-1H-indol-2-yl)-3H-imidazo[4,5-b]pyridine] |
| < 100 | < 100 | 100 to 1000 | CCc1c(-c2ccnc3[nH]ccc23)[nH]c2ccc(C3CCNCC3)cc12 [Example 236, 4-(3-ethyl-5-(piperidin-4-yl)-1H-indol-2-yl)-1H-pyrrolo[2,3-b]pyridine] |
| < 100 | > 3130 | 1000 to 50000 | Cc1nc2cc(-c3[nH]c4ccc(C5CCN(C(=O)CC(C)(C)O)CC5)cc4c3C(C)C)ccn2n1 [Example 601, 3-hydroxy-1-(4-(3-isopropyl-2-(2-methyl-[1,2,4]triazolo[1,5-a]pyridin-7-yl)-1H-indol-5-yl)piperidin-1-yl)-3-methylbutan-1-one] |
| 100 to 1000 | 100 to 1000 | 1000 to 50000 | CCc1c(-c2ccnc3[nH]ncc23)[nH]c2ccc(C3CCN(C(=O)C4CCNCC4)CC3)cc12 [Example 647, (4-(3-ethyl-2-(1H-pyrazolo[3,4-b]pyridin-4-yl)-1H-indol-5-yl)piperidin-1-yl)(piperidin-4-yl)methanone] |
| 1000 to 50000 | 1000 to 50000 | 1000 to 50000 | CCc1c(-c2cnc3cccnn23)[nH]c2ccc(C3CCNCC3)cc12 [Example 187, 3-(3-ethyl-5-(piperidin-4-yl)-1H-indol-2-yl)imidazo[1,2-b]pyridazine] |

— US11739098B2 (BRISTOL-MYERS SQUIBB COMPANY, priority 2017, dated 2023)
